In US20020026069A1 (priority 1998, published 2002):

Columns and labels:
[1] = cited from earlier work
[2] = cited from earlier work; remark: listed apart in the source
[3] = Stability in aqueous solution; type: physicochemical; conditions: pH 2-3
[4] = Solubility; type: physicochemical
[5] = Stability of the solid on storage or heating; type: physicochemical
[6] = Hygroscopicity; type: physicochemical
[7] = Particle size; type: physicochemical; conditions: free base obtained by this process
[8] = incubation for 6 months at 40° C.; composition produced by the Milman process (U.S. Pat. No. 5,354,885); cited from earlier work
[9] = free base obtained by this process
[10] = synthesized by the methods of GB 1,364,505 / U.S. Pat. No. 3,803,120

stability in the solution [3]	solubility in water [4]	stability [5, 9]	sensitivity to heat ([5]; produces cyclic levodopa and levodopa-levodopa ethyl ester)	stability [5, 10]	hygroscopicity [6, 9]	average particle size [7]	particle size range [7]	hygroscopicity [6, 10]	SMILES	half-life in vivo [1]	solubility [2]	L-DOPA ethyl ester remaining after incubation [8]
–	–	–	–	–	–	–	–	–	N[C@@H](Cc1ccc(O)c(O)c1)C(=O)O [L-DOPA]	short half-life	very poor solubility	–
stable	soluble to a certain extent	stable	very sensitive to heat	not stable	non-hygroscopic	less than 60 μ	18-180 μ	–	CCOC(=O)[C@@H](N)Cc1ccc(O)c(O)c1 [L-DOPA ethyl ester]	–	–	at least 97 % by weight
–	–	–	–	not stable	–	–	–	hygroscopic	CCOC(=O)[C@@H](N)Cc1ccc(O)c(O)c1.Cl [L-DOPA ethyl ester hydrochloride salt, L-DOPA ethyl ester hydrochloride, reference compound]	–	–	–
